Where two headings read alike, the source gives them in different places.
Assays:
[1] = tested on: wild type IIIB; assay: Single cycle infectivity assay in HeLa P4-2 cells, wild type virus; format: cell-based, HIV
[2] = tested on: virus containing Q148R mutation in the integrase gene; conditions: k = IC50(mutant)/IC50(wild type)
Protocol: (§1) An assay for measuring the inhibition of acute HIV infection with HeLa P4-2 cells in a single cycle infectivity assay was conducted using methods described in Joyce et al., J. Biol. Chem. 2002, 277: 45811, Hazuda et al., Science 2000, 287: 646, and Kimpton et al, J. Virol. 1992, 66: 2232. Proviral plasmids encoding viruses containing specific mutations in the integrase gene (N155H, Q148R, Y143R, E92Q, or G140S/Q148H) were generated by site-directed mutagenesis, and viruses were produced by transfecting 293T cells with the appropriate proviral plasmids.

[3] = tested on: virus containing N155H mutation in the integrase gene; conditions: k = IC50(mutant)/IC50(wild type)
Protocol: as §1

[4] = tested on: virus containing E92Q mutation in the integrase gene; conditions: k = IC50(mutant)/IC50(wild type)
Protocol: as §1

[5] = tested on: virus containing Y143R mutation in the integrase gene; conditions: k = IC50(mutant)/IC50(wild type)
Protocol: as §1

[6] = tested on: virus containing G140S/Q148H mutation in the integrase gene; conditions: k = IC50(mutant)/IC50(wild type)
Protocol: as §1

[7] = tested on: HIV-1; assay: Inhibition of acute HIV-1 infection of T-lymphoid cells (spread assay); format: cell-based
Protocol: Assay for Inhibition of HIV-1 Replication
Assays for the inhibition of acute HIV-1 infection of T-lymphoid cells were conducted in accordance with Vacca, J. P. et al, Proc. Natl. Acad. Sci. USA 1994, 91: 4096.

[8] = biological target: T1, recombinant integrase (HIV-1 integrase) (Human immunodeficiency virus type 1 group M subtype B, UniProt P04585); assay: HIV-1 integrase assay: strand transfer catalyzed by recombinant integrase; format: biochemical; conditions: strand transfer activity
T1 construct: Assays for the strand transfer activity of integrase were conducted in accordance with WO 02/30930 for recombinant integrase
Protocol: HIV-1 Integrase Assay: Strand Transfer Catalyzed by Recombinant Integrase
Assays for the strand transfer activity of integrase were conducted in accordance with WO 02/30930 for recombinant integrase. […] For example, the compounds prepared in Examples 1 to 5 were tested in the integrase assay and found to have the IC50 values in Table B. (Compounds 6A and 6B were not tested in this assay.)
Further description on conducting the assay using preassembled complexes is found in Wolfe, A. L. et al., J. Virol. 1996, 70: 1424-1432, Hazuda et al., J. Virol. 1997, 71: 7005-7011; Hazuda et al., Drug Design and Discovery 1997, 15: 17-24; and Hazuda et al., Science 2000, 287: 646-650.

[9] = Human immunodeficiency virus 1, IIIB, HeLaP4-2, HeLa P4-2 cells, single cycle infectivity, wild type IIIB, read-out: wild type IIIB IC50

Cc1nnc(C(=O)NC(C)(C)c2nc(C(=O)NCc3ccc(F)cc3)c(O)c(=O)n2C)o1 [Compound X, raltegravir, reference compound]
IC50 ([1]; Human immunodeficiency virus 1, IIIB, HeLaP4-2, read-out: wild type IIIB IC50 (nM)): 52 nM
Number of fold shift in IC50 versus wild type IIIB, Q148R [2]: 22
Number of fold shift in IC50 versus wild type IIIB, N155H [3]: 13
Number of fold shift in IC50 versus wild type IIIB, E92Q [4]: 3
Number of fold shift in IC50 versus wild type IIIB, Y143R [5]: 15
Number of fold shift in IC50 versus wild type IIIB, G140S/Q148H [6]: 397

CN(C)C(=O)C(=O)N(C)C1CCCCn2c1nc(C(=O)NCc1ccc(F)cc1)c(O)c2=O (single isomer, unassigned; (-)) [Compound Y, (−)N-(2-{[(4-fluorobenzyl)amino]carbonyl}-3-hydroxy-4-oxo-4,6,7,8,9,10-hexahydropyrimido[1,2-a]azepin-10-yl)-N,N′,N′-trimethylethanediamide, reference compound]
IC50 [1, 9]: 16 nM
Number of fold shift in IC50 versus wild type IIIB, Q148R [2]: 26
Number of fold shift in IC50 versus wild type IIIB, N155H [3]: 15
Number of fold shift in IC50 versus wild type IIIB, E92Q [4]: 4
Number of fold shift in IC50 versus wild type IIIB, Y143R [5]: 1
Number of fold shift in IC50 versus wild type IIIB, G140S/Q148H [6]: 406

Cc1cc(CNC(=O)c2nc3n(c(=O)c2O)[C@H](C)COC[C@@H]3N(C)C(=O)C(=O)N(C)C)ccc1F [Compound 4C, N-((6R,10R)-2-{[(4-fluoro-3-methylbenzyl)amino]carbonyl}-3-hydroxy-6-methyl-4-oxo-6,7,9,10-tetrahydro-4H-pyrimido[1,2-d][1,4]oxazepin-10-yl)-N,N′,N′-trimethylethanediamide]
IC50 [1, 9]: 26 nM
Number of fold shift in IC50 versus wild type IIIB, Q148R [2]: 3
Number of fold shift in IC50 versus wild type IIIB, N155H [3]: 3
Number of fold shift in IC50 versus wild type IIIB, Y143R [5]: 1
Number of fold shift in IC50 versus wild type IIIB, G140S/Q148H [6]: 11
IC95 (nM) in the presence of 10% FBS [7]: 10 nM
IC50 ([8]; read-out: IC50): 48 nM

COC1(C)CCC(N(C)C(=O)C(=O)N(C)C)c2nc(C(=O)NCc3ccc(F)c(C)c3)c(O)c(=O)n2C1 (single isomer, unassigned) [Compound 2D, N-(2-{[(4-fluoro-3-methylbenzyl)amino]carbonyl}-3-hydroxy-7-methoxy-7-methyl-4-oxo-4,6,7,8,9,10-hexahydropyrimido[1,2-a]azepin-10-yl)-N,N′,N′-trimethylethanediamide]
IC50 ([1]; HeLa P4-2 cells, single cycle infectivity, wild type IIIB, read-out: wild type IIIB IC50): 23 nM
Number of fold shift in IC50 versus wild type IIIB, Q148R [2]: 1
Number of fold shift in IC50 versus wild type IIIB, N155H [3]: 2
Number of fold shift in IC50 versus wild type IIIB, Y143R [5]: 2
Number of fold shift in IC50 versus wild type IIIB, G140S/Q148H [6]: 4
IC95 (nM) in the presence of 10% FBS [7]: 14 nM
IC50 ([8]; IC50 (nM)): 46 nM

Cc1cc(CNC(=O)c2nc3n(c(=O)c2O)[C@H](C)COC[C@H]3N(C)C(=O)C(=O)N(C)C)ccc1F [Compound 4D, N-((6R,10S)-2-{[(4-fluoro-3-methylbenzyl)amino]carbonyl}-3-hydroxy-6-methyl-4-oxo-6,7,9,10-tetrahydro-4H-pyrimido[1,2-d][1,4]oxazepin-10-yl)-N,N′,N′-trimethylethanediamide]
IC50 [1, 9]: 20 nM
Number of fold shift in IC50 versus wild type IIIB, Q148R [2]: 9
Number of fold shift in IC50 versus wild type IIIB, N155H [3]: 8
Number of fold shift in IC50 versus wild type IIIB, Y143R [5]: 2
Number of fold shift in IC50 versus wild type IIIB, G140S/Q148H [6]: 72
IC95 (nM) in the presence of 10% FBS [7]: 6 nM
IC50 ([8]; read-out: IC50): 36 nM

CC[C@@H]1COC[C@@H](N(C)C(=O)C(=O)N(C)C)c2nc(C(=O)NCc3ccc(F)cc3)c(O)c(=O)n21 [Compound 5D, N-((6R,10S)-6-ethyl-2-{[(4-fluorobenzyl)amino]carbonyl}-3-hydroxy-4-oxo-6,7,9,10-tetrahydro-4H-pyrimido[1,2-d][1,4]oxazepin-10-yl)-N N′ N′-trimethylethanediamide]
IC50 [1, 9]: 26 nM
Number of fold shift in IC50 versus wild type IIIB, Q148R [2]: 14
Number of fold shift in IC50 versus wild type IIIB, N155H [3]: 13
Number of fold shift in IC50 versus wild type IIIB, Y143R [5]: 1
Number of fold shift in IC50 versus wild type IIIB, G140S/Q148H [6]: 18
IC95 (nM) in the presence of 10% FBS [7]: 20 nM
IC50 ([8]; read-out: IC50): 42 nM

Reference: patent US8513234B2, “HIV integrase inhibitors” (Merck Sharp & Dohme Corp., priority 2008, dated 2013)
